Laboratory results reported in patent publication US20140357512A1, “HISTONE DEACETYLASE (HDAC) BIOMARKERS IN MULTIPLE MYELOMA” (priority 2013, published 2014).

Tested on: human myeloma cell line MM.1S
Test: SILAC acetylated-lysine peptide profiling, HDAC inhibitor vs DMSO (light/heavy ratio)
Type: cell-based
Excerpt: An embodiment of the invention comprises utilizing the SILAC method in order to quantitate changes in protein expression between two or more populations of cells. The SILAC method is a technique based on mass spectrometry that detects differences in protein abundance among samples using non-radioactive isotopic labeling. The SILAC method is known in the art, and described in detail in Ong et al., “Stable Isotope Labeling by Amino Acids in Cell Culture, SILAC, as a Simple and Accurate Approach to Expression Proteomics”, Molecular & Cellular Proteomics, vol. 1, pp. 376-386 (2002), which is incorporated herein by reference in its entirety.
Briefly, the SILAC method involves growing two populations of cells in cell culture. The first population of cells is grown in growth media containing normal amino acids (“normal media”). The second population of cells is grown in media lacking a standard essential amino acid (such as lysine), but is then supplemented with a non-radioactive, isotopically labeled form of that essential amino acid (such as lysine labeled with ^13C atoms, rather than normal ^12C atoms), which is called “heavy media”. When the two populations of cells are each growing in the medium, they incorporate the amino acids into all of their proteins. The growth of cells maintained in the heavy media is no different from that in normal media. All peptides containing the heavy amino acids are heavier than their normal counterparts. The cells from each of the two populations of cells are lysed. The lysates from each of the two cell populations are then combined. The combined cell lysates are then analyzed by mass spectrometry. Pairs of chemically identical peptides of different stable isotope composition can be differentiated in a mass spectrometer due to their difference in mass. The ratio of peak intensities in the mass spectrum for such peptide pairs reflects the abundance ratio for the two proteins.
This example describes SILAC studies that were performed to compare the effects of three different HDAC inhibitors (Compound A, Compound B, and tubastatin A) to a control on a human multiple myeloma cell line. The HDAC inhibitors were also compared amongst themselves to determine differences in their effects.
A human myeloma cell line MM.1S was grown using either ^12C (light) or ^13C (heavy) lysine containing culture medium. The “heavy” cells were treated with DMSO as the control, and the “light” cells were treated with a single HDAC inhibitor at 37° C. for 6 hours. The heavy and light cells were lysed, and the lysates were mixed in 1:1 ratio and digested with the protease trypsin. The acetylated lysine containing peptides (due to the action of the HDAC inhibitor) in the digested peptide pool were captured by a non-specific anti-acetylated lysine antibody cocktail (the antibodies identify both light and heavy acetylated peptides), and subjected to mass spectrometry analysis in order to identify thousands of individual peptides.
Thousands of peptides were identified in pairs (^12C and ^13C) due to their known mass differences. The amino acid sequence and quantitative ratio (Light/Heavy) of a given peptide in two differentially treated cell lysates were then determined and annotated with their possible protein (gene) sources.
As stated above, three HDAC inhibitors (Compound A, Compound B, and Tubastatin A) were used. Thus, the SILAC method was performed three times, with a different HDAC inhibitor compared to a control each time. Accordingly, there are three pairs of quantitative data in the table below, i.e., Compound A:DMSO, Compound B:DMSO, and Tubastatin A:DMSO. A cut-off of 1.30 fold of change (increase or decrease) was then used to determine “changed” or “+” in the table, and any peptides with a fold of change less than 1.3 fold were determined to be “unchanged” or “0” in the table. Those peptides that were not identified were marked as “NA” in the table. […]

## CN1CCc2c(c3ccccc3n2Cc2ccc(C(=O)NO)cc2)C1 [Tub A]
GART [156], log 2 scale, drug vs DMSO
  L/H ratio of acetylated peptide ASGLAAGK(ac)GVIVAK (SEQ ID NO: 37): 0.46
GDASK(ac)EDIDTAMK (SEQ ID NO: 161), Isoform 1 of Hydroxyacyl-coenzyme A dehydrogenase mitochondrial [241], HADH
  light to heavy ratio (L/H ratio) of acetylated peptide, log 2 scale: 0.47
GDGTGGK(ac)SIYGER (SEQ ID NO: 196), Peptidyl-prolyl cis-trans isomerase B [116], PPIB
  light to heavy ratio (L/H ratio) of acetylated peptide, log 2 scale: −0.54
GFAFVTFDDHDSVDK(ac)IVIQK (SEQ ID NO: 165), Isoform A1-B of Heterogeneous nuclear ribonucleoprotein A1 [161], HNRNPA1
  light to heavy ratio (L/H ratio) of acetylated peptide, log 2 scale: −0.53
GFGGK(ac)YGVER (SEQ ID NO: 162), Hematopoietic lineage cell-specific protein [123], HCLS1
  light to heavy ratio (L/H ratio) of acetylated peptide, log 2 scale: 0.77
GHLENNPALEK(ac)LLPHIR (SEQ ID NO: 208), 60S acidic ribosomal protein P0 [77], RPLP0
  light to heavy ratio (L/H ratio) of acetylated peptide, log 2 scale: −0.48
GIVK(ac)DIIHDPGR (SEQ ID NO: 207), 60S ribosomal protein L8 [46], RPL8
  light to heavy ratio (L/H ratio) of acetylated peptide, log 2 scale: −0.54
GLFIIDDK(ac)GILR (SEQ ID NO: 197), Peroxiredoxin-1 [136], PRDX1
  light to heavy ratio (L/H ratio) of acetylated peptide, log 2 scale: −0.77
GLSSLLYGSIPK(ac)AAVR (SEQ ID NO: 220), Tricarboxylate transport protein mitochondrial [97], SLC25A1
  light to heavy ratio (L/H ratio) of acetylated peptide, log 2 scale: 0.44
GNB2L1 [175], log 2 scale, drug vs DMSO
  L/H ratio of acetylated peptide LVK(ac)VWNLANCK (SEQ ID NO: 39): −0.70
GNB2L1 [271], log 2 scale, drug vs DMSO
  L/H ratio of acetylated peptide IIVDELK(ac)QEVISTSSK (SEQ ID NO: 38): −0.62
GPIGSIGPK(ac)GIPGEDGYR (SEQ ID NO: 146), Isoform 1 of Collagen alpha-3(VI) chain [2052], COL6A3
  light to heavy ratio (L/H ratio) of acetylated peptide, log 2 scale: −0.80
GSK(ac)K(ac)AVTK (SEQ ID NO: 490), Histone H2B type 2-E [16:17], HIST2H2BE
  L/H ratio of acetylated peptide: 0.00 log 2
GTPBP4 [7], log 2 scale, drug vs DMSO
  L/H ratio of acetylated peptide (ac)AHYNFK(ac)K (SEQ ID NO: 40): −0.38
GTVRPANDFNPDADAK(ac)ALR (SEQ ID NO: 130), Annexin A6 [370], ANXA6
  light to heavy ratio (L/H ratio) of acetylated peptide, log 2 scale: 0.44
GYGFGLIK(ac)LDLK (SEQ ID NO: 465), Voltage-dependent anion-selective channel protein 1 [28], VDAC1
  L/H ratio of acetylated peptide: 0.00 log 2
GYLTK(ac)EDLR (SEQ ID NO: 216), Protein S100-A10 [28], S100A10
  light to heavy ratio (L/H ratio) of acetylated peptide, log 2 scale: 1.00
Galectin-1 [13], gene LGALS1, inhibitor:DMSO
  light to heavy ratio (L/H ratio) of acetylated peptide (ac)ACGLVASNLNLK(ac)PGECLR (SEQ ID NO: 575): 0.00 log 2
Glutamate dehydrogenase 1 mitochondrial [503], gene GLUD1, inhibitor:DMSO
  light to heavy ratio (L/H ratio) of acetylated peptide ISGASEK(ac)DIVHSGLAYTMER (SEQ ID NO: 543): 0.00 log 2
Glyceraldehyde-3-phosphate dehydrogenase [263], gene GAPDH, inhibitor:DMSO
  light to heavy ratio (L/H ratio) of acetylated peptide VVK(ac)QASEGPLK (SEQ ID NO: 597): 0.00 log 2
Guanine nucleotide-binding protein G(olf) subunit alpha [55], gene GNAL, drug:DMSO
  light to heavy ratio (L/H ratio), log 2 scale, acetylated peptide LLLLGAGESGK(ac)STIVK (SEQ ID NO: 769): 0.00
H2AFV [5:8], log 2 scale, drug vs DMSO
  L/H ratio of acetylated peptide AGGK(ac)AGK(ac)DSGK (SEQ ID NO: 15): 0.47
HADHA [406], log 2 scale, drug vs DMSO
  L/H ratio of acetylated peptide GQQQVFK(ac)GLNDK (SEQ ID NO: 41): 0.46
HEXB [161], log 2 scale, drug vs DMSO
  L/H ratio of acetylated peptide EPVAVLK(ac)ANR (SEQ ID NO: 9): −0.58
HIK(ac)ENDYYTPTGEFR (SEQ ID NO: 227), Dolichyl-diphosphooligosaccharide--protein glycosyltransferase subunit STT3A [613], STT3A
  light to heavy ratio (L/H ratio) of acetylated peptide, log 2 scale: −0.44
HIST1H2BO [6:12], log 2 scale, drug vs DMSO
  L/H ratio of acetylated peptide PDPAK(ac)SAPAPK(ac)K (SEQ ID NO: 16): 0.47
HK(ac)DIDILIVR (SEQ ID NO: 178), Isocitrate dehydrogenase [NAD] subunit gamma mitochondrial [159], IDH3G
  light to heavy ratio (L/H ratio) of acetylated peptide, log 2 scale: −1.00
HLA-B associated transcript 1 [188], gene SNORD84, DDX39B, inhibitor:DMSO
  light to heavy ratio (L/H ratio) of acetylated peptide SLNLK(ac)HIK (SEQ ID NO: 607): 0.00 log 2
HMGB2 [30], log 2 scale, drug vs DMSO
  L/H ratio of acetylated peptide K(ac)HPDSSVNFAEFSK (SEQ ID NO: 42): −0.48
HNRNPA3 [29], log 2 scale, drug vs DMSO
  L/H ratio of acetylated peptide RGEEGHDPK(ac)EPEQLR (SEQ ID NO: 43): −0.45
HNRNPM [83], log 2 scale, drug vs DMSO
  L/H ratio of acetylated peptide AFITNIPFDVK(ac)WQSLK (SEQ ID NO: 44): −0.48
HNRNPM [134], log 2 scale, drug vs DMSO
  L/H ratio of acetylated peptide AAEVLNK(ac)HSLSGRPLK (SEQ ID NO: 3): −0.87
HNRNPR [341], log 2 scale, drug vs DMSO
  L/H ratio of acetylated peptide VK(ac)VLFVR (SEQ ID NO: 45): −0.77
HNRNPU [246], log 2 scale, drug vs DMSO
  L/H ratio of acetylated peptide GYFEYIEENK(ac)YSR (SEQ ID NO: 46): −0.60
HNRNPU [497], log 2 scale, drug vs DMSO
  L/H ratio of acetylated peptide TTWVTK(ac)HAAENPGK (SEQ ID NO: 47): −0.56
HSP90B1 [97], log 2 scale, drug vs DMSO
  L/H ratio of acetylated peptide NK(ac)EIFLR (SEQ ID NO: 52): −1.00
HSP90B1 [114], log 2 scale, drug vs DMSO
  L/H ratio of acetylated peptide […](ac)IR (SEQ ID NO: 49): −0.53
HSP90B1 [161], log 2 scale, drug vs DMSO
  L/H ratio of acetylated peptide EELVK(ac)NLGTIAK (SEQ ID NO: 48): −0.60
HSP90B1 [455], log 2 scale, drug vs DMSO
  L/H ratio of acetylated peptide ETLQQHK(ac)LLK (SEQ ID NO: 50): −0.74
HSP90B1 [479], log 2 scale, drug vs DMSO
  L/H ratio of acetylated peptide IADDK(ac)YNDTFWK (SEQ ID NO: 51): −0.78
HSPA5 [96], log 2 scale, drug vs DMSO
  L/H ratio of acetylated peptide NQLTSNPENTVFDAK(ac)R (SEQ ID NO: 54): −0.74
HSPA5 [213], log 2 scale, drug vs DMSO
  L/H ratio of acetylated peptide […](ac)R (SEQ ID NO: 53): −0.54
HSPA8 [71], log 2 scale, drug vs DMSO
  L/H ratio of acetylated peptide […](ac)R (SEQ ID NO: 55): −0.48
Heat shock 70 kDa protein 1A/1B [71], HSPA1B, HSPA1A, drug:DMSO
  light to heavy ratio (L/H ratio) of acetylated peptide NQVALNPQNTVFDAK(ac)R (SEQ ID NO: 267): 0.59 log 2
